The compounds below were run against recombinant DYRK1A kinase (Homo sapiens, UniProt Q13627) (assay: DYRK1A kinase assay (Ser/Thr 18 peptide Z-lyte FRET)). Conditions: DYRK1A 0.25 μg/mL, ATP 15 μM, Ser/Thr peptide 18 4 μM, one hour at room temperature, 11-point dose-response from 10 μM.
Assay type: biochemical
Method: Representative compounds were screened using the assay procedure for DYRK1A kinase activity as described below.
Each compound was dissolved in DMSO as a 10 mM stock and used to prepare compound source plates. Serial dilution (1:3, 11-point dose-response curves from 10 μM to 0.00016 μM) and compound transfer was performed using the ECHO 550 (Labcyte, Sunnyvale, CA) into 1536-well black-walled round bottom plates (Corning).
The DYRK1A kinase assay was run using the Ser/Thr 18 peptide Z-lyte assay kit according to manufacturer's instructions (Life Technologies—a Division of Thermo-Fisher). This is a non-radioactive assay using fluorescence resonance energy transfer (FRET) between coumarin and fluorescein to detect kinase activity which is represented as a ratio of coumarin emission/fluorescein emission.
Briefly, recombinant DYRK1A kinase, ATP and Ser/Thr peptide 18 were prepared in 1× Kinase buffer to final concentrations of 0.25 μg/mL, 15 μM, and 4 μM respectively. The mixture was allowed to incubate with the representative compounds for one hour at room temperature. All reactions were performed in duplicate. Unphosphorylated (“0% Control”) and phosphorylated (“100% control”) forms of Ser/Thr 18 served as control reactions. Additionally, an 11-point dose-response curve of Staurosporine (1 uM top) was run to serve as a positive compound control.
After incubation, Development Reagent A was diluted in Development Buffer then added to the reaction and allowed to further incubate for one hour at room temperature. The plate was read at Ex 400 Em 455 to detect the coumarin signal and Ex 400 Em 520 to measure the signal (EnVision Multilabel Plate Reader, PerkinElmer).
The Emission ratio (Em) was calculated as a ratio of the coumarin (C) emission signal (at 445 nm)/Fluorescein (F) emission signal (at 520 nm). The percent phosphorylation was then calculated using the following formula: [1−((Em ratio×F100%)−C100%)/((C0%−C100%)+(Em ratio×(F100%−F0%)))]. Dose-response curves were generated, and inhibitory concentration (IC50) values were calculated using non-linear regression curve fit in the Dotmatics' Studies Software (Bishops Stortford, UK).

IC50	Structure (SMILES)
0.7 nM	CN1CC[C@H](Nc2nc(N)c3c(-c4ccc5ncn(CC(F)F)c5n4)ccn3n2)[C@H](F)C1 [Compound 120, 5-(3-(2,2-Difluoroethyl)-3H-imidazo[4,5-b]pyridin-5-yl)-N^2-((3R,4S)-3-fluoro-1-methylpiperidin-4-yl)pyrrolo[2,1-f][1,2,4]triazine-2,4-diamine]
1.1 nM	Nc1nc(N[C@@H]2CCN(C3COC3)C[C@@H]2F)nn2ccc(-c3ccc4ncn(CC(F)F)c4n3)c12 [Compound 122, 5-(3-(2,2-Difluoroethyl)-3H-imidazo[4,5-b]pyridin-5-yl)-N^2-((3S,4R)-3-fluoro-1-(oxetan-3-yl)piperidin-4-yl)pyrrolo[2,1-f][1,2,4]triazine-2,4-diamine]
1.7 nM	CN1CC[C@H](Nc2nc(N)c3c(-c4ccc5ncn(CC(F)(F)F)c5n4)ccn3n2)[C@H](F)C1 [Compound 125, N^2-((3R,4S)-3-Fluoro-1-methylpiperidin-4-yl)-5-(3-(2,2,2-trifluoroethyl)-3H-imidazo[4,5-b]pyridin-5-yl)pyrrolo[2,1-f][1,2,4]triazine-2,4-diamine]
1.4 nM	Nc1nc(N[C@@H]2CCN(C3COC3)C[C@@H]2F)nn2ccc(-c3ccc4ncn(CC(F)(F)F)c4n3)c12 [Compound 128, N^2-((3S,4R)-3-Fluoro-1-(oxetan-3-yl)piperidin-4-yl)-5-(3-(2,2,2-trifluoroethyl)-3H-imidazo[4,5-b]pyridin-5-yl)pyrrolo[2,1-f][1,2,4]triazine-2,4-diamine]
1.4 nM	Nc1nc(N[C@H]2CCN(C3COC3)C[C@H]2F)nn2ccc(-c3ccc4ncn(CC(F)(F)F)c4n3)c12 [Compound 129, N^2-((3R,4S)-3-Fluoro-1-(oxetan-3-yl)piperidin-4-yl)-5-(3-(2,2,2-trifluoroethyl)-3H-imidazo[4,5-b]pyridin-5-yl)pyrrolo[2,1-f][1,2,4]triazine-2,4-diamine]
4.7 nM	Nc1nc(N[C@@H]2CCN(C3COC3)CC2(F)F)nn2ccc(-c3ccc4ncn(CC(F)(F)F)c4n3)c12 [Compound 131, (R)—N^2-(3,3-Difluoro-1-(oxetan-3-yl)piperidin-4-yl)-5-(3-(2,2,2-trifluoroethyl)-3H-imidazo[4,5-b]pyridin-5-yl)pyrrolo[2,1-f][1,2,4]triazine-2,4-diamine]
6.4 nM	CNc1nc(N[C@H]2CCN(C3COC3)C[C@H]2F)nn2ccc(-c3ccc4nc(C)n(C(F)F)c4n3)c12 [Compound 135, 5-(3-(Difluoromethyl)-2-methyl-3H-imidazo[4,5-b]pyridin-5-yl)-N^2-((3R,4S)-3-fluoro-1-(oxetan-3-yl)piperidin-4-yl)-N^4-methylpyrrolo[2,1-f][1,2,4]triazine-2,4-diamine]
3.4 nM	Cc1nc2ccc(-c3ccn4nc(N[C@@H]5CCN(C6COC6)C[C@@H]5F)nc(N)c34)nc2n1CCF [Compound 141, N^2-((3S,4R)-3-Fluoro-1-(oxetan-3-yl)piperidin-4-yl)-5-(3-(2-fluoroethyl)-2-methyl-3H-imidazo[4,5-b]pyridin-5-yl)pyrrolo[2,1-f][1,2,4]triazine-2,4-diamine]
2.7 nM	Cc1nc2ccc(-c3ccn4nc(N[C@@H]5CCN(C)CC5(F)F)nc(N)c34)nc2n1CCF [Compound 142, (R)—N^2-(3,3-Difluoro-1-methylpiperidin-4-yl)-5-(3-(2-fluoroethyl)-2-methyl-3H-imidazo[4,5-b]pyridin-5-yl)pyrrolo[2,1-f][1,2,4]triazine-2,4-diamine]
4.2 nM	CC(=O)N1CC[C@H](Nc2nc(N)c3c(-c4ccc5nc(C)n(CCF)c5n4)c(F)cn3n2)[C@H](F)C1 [Compound 144, 1-((3R,4S)-4-((4-Amino-6-fluoro-5-(3-(2-fluoroethyl)-2-methyl-3H-imidazo [4,5-b]pyridin-5-yl)pyrrolo[2,1-f][1,2,4]triazin-2-yl)amino)-3-fluoropiperidin-1-yl)ethan-1-one]
1.7 nM	Cc1nc2ccc(-c3c(F)cn4nc(N[C@H]5CCN(C6COC6)C[C@H]5F)nc(N)c34)nc2n1CCF [Compound 145, 6-Fluoro-N2-((3R,4S)-3-fluoro-1-(oxetan-3-yl)piperidin-4-yl)-5-(3-(2-fluoroethyl)-2-methyl-3H-imidazo[4,5-b]pyridin-5-yl)pyrrolo[2,1-f][1,2,4]triazine-2,4-diamine]

Further lines, the compound ahead of its results:

Structure (SMILES)	IC50
COCCN1CC[C@H](Nc2nc(N)c3c(-c4ccc5ncn(CC(F)F)c5n4)ccn3n2)[C@H](F)C1 [Compound 121, 5-(3-(2,2-difluoroethyl)-3H-imidazo[4,5-b]pyridin-5-yl)-N^2-((3R,4S)-3-fluoro-1-(2-methoxyethyl)piperidin-4-yl)pyrrolo[2,1-f][1,2,4]triazine-2,4-diamine]	0.8 nM
C[C@]1(O)CC[C@H](Nc2nc(N)c3c(-c4ccc5ncn(CC(F)(F)F)c5n4)ccn3n2)CC1 [Compound 123, (1r,4r)-4-((4-Amino-5-(3-(2,2,2-trifluoroethyl)-3H-imidazo[4,5-b]pyridin-5-yl)pyrrolo[2,1-f][1,2,4]triazin-2-yl)amino)-1-methylcyclohexan-1-ol]	1.9 nM
CN1C[C@@H](Nc2nc(N)c3c(-c4ccc5ncn(CC(F)(F)F)c5n4)ccn3n2)C(F)(F)C1 [Compound 124, (R)—N^2-(4,4-Difluoro-1-methylpyrrolidin-3-yl)-5-(3-(2,2,2-trifluoroethyl)-3H-imidazo[4,5-b]pyridin-5-yl)pyrrolo[2,1-f][1,2,4]triazine-2,4-diamine]	1 nM
COCCN1CC[C@H](Nc2nc(N)c3c(-c4ccc5ncn(CC(F)(F)F)c5n4)ccn3n2)[C@H](F)C1 [Compound 126, N^2-((3R,4S)-3-Fluoro-1-(2-methoxyethyl)piperidin-4-yl)-5-(3-(2,2,2-trifluoroethyl)-3H-imidazo[4,5-b]pyridin-5-yl)pyrrolo[2,1-f][1,2,4]triazine-2,4-diamine]	1.3 nM
CC(=O)N1CC[C@H](Nc2nc(N)c3c(-c4ccc5ncn(CC(F)(F)F)c5n4)ccn3n2)[C@H](F)C1 [Compound 127, 1-((3R,4S)-4-((4-Amino-5-(3-(2,2,2-trifluoroethyl)-3H-imidazo[4,5-b]pyridin-5-yl)pyrrolo[2,1-f][1,2,4]triazin-2-yl)amino)-3-fluoropiperidin-1-yl)ethan-1-one]	1.5 nM
CNc1nc(N[C@H]2C[C@](C)(O)C2)nn2ccc(-c3ccc4ncn(CC(F)(F)F)c4n3)c12 [Compound 132, (1r,3r)-1-Methyl-3-((4-(methylamino)-5-(3-(2,2,2-trifluoroethyl)-3H-imidazo [4,5-b]pyridin-5-yl)pyrrolo[2,1-f][1,2,4]triazin-2-yl)amino)cyclobutan-1-ol]	1.2 nM
CNc1nc(N[C@H]2CCN(C(C)=O)C[C@H]2F)nn2ccc(-c3ccc4nc(C)n(C(F)F)c4n3)c12 [Compound 134]	5 nM
Cc1nc2ccc(-c3c(F)cn4nc(N[C@H]5CC[C@](C)(O)CC5)nc(N)c34)nc2n1CCF [Compound 143, (1r,4r)-4-((4-Amino-6-fluoro-5-(3-(2-fluoroethyl)-2-methyl-3H-imidazo[4,5-b]pyridin-5-yl)pyrrolo[2,1-f][1,2,4]triazin-2-yl)amino)-1-methylcyclohexan-1-ol]	1.3 nM
Cc1nc2ccc(-c3c(F)cn4nc(N[C@@H]5CCN(C)CC5(F)F)nc(N)c34)nc2n1CCF [Compound 146, (R)—N^2-(3,3-Difluoro-1-methylpiperidin-4-yl)-6-fluoro-5-(3-(2-fluoroethyl)-2-methyl-3H-imidazo[4,5-b]pyridin-5-yl)pyrrolo[2,1-f][1,2,4]triazine-2,4-diamine]	0.8 nM
